Results: ChEMBL document CHEMBL5346911, “From PROTAC to inhibitor: Structure-guided discovery of potent and orally bioavailable BET inhibitors” (Eur J Med Chem, 2023)
Values after ≈ are worked out from the molar mass of the structure shown.

Experiments:
[1] = molecular target: T1, Bromodomain-containing protein 2 (Homo sapiens, UniProt P25440); test: Inhibition of BRD2 BD1 (unknown origin) by TR-FRET assay
[2] = molecular target: T1, Bromodomain-containing protein 2; test: Inhibition of BRD2 BD2 (unknown origin) by TR-FRET assay
[3] = molecular target: T2, Bromodomain-containing protein 4 (Homo sapiens, UniProt O60885)
Description: Inhibition of BRD4 BD2 (unknown origin) by TR-FRET assay

[4] = system: HD-MB03; test: cells; conditions: Homo sapiens, HD-MB03, 72 h
[5] = system: D283 Med; test: cells; conditions: Homo sapiens, 72 h
[6] = cells; conditions: Homo sapiens, NALM16, 72 h
[7] = system: MV4-11; test: cells; conditions: Homo sapiens, MV4-11, 72 h
[8] = in vitro; conditions: human, plasma
[9] = system: MOLM-13; test: cells; conditions: Homo sapiens, MOLM-13, 72 h
[10] = Downregulation of MYC level in human MV4-11 cells at 100 nM measured after 6 hrs by immunoblotting analysis relative to control; format: functional
[11] = Downregulation of MYC level in human MV4-11 cells at 1 uM measured after 6 hrs by immunoblotting analysis relative to control; format: functional
[12] = Apparent volume of distribution during terminal phase in CD1 mouse at 1 mg/kg, iv measured upto 24 hrs by LC-MS/MS method; format: ADME, organism-based; conditions: in vivo
[13] = Tmax in CD1 mouse at 3 mg/kg, po measured upto 24 hrs by LC-MS/MS method; format: ADME, organism-based; conditions: in vivo
[14] = Tmax in CD1 mouse at 10 mg/kg, po measured upto 24 hrs by LC-MS/MS method; format: ADME, organism-based; conditions: in vivo
[15] = Cmax in CD1 mouse at 1 mg/kg, iv measured upto 24 hrs by LC-MS/MS method; format: ADME, organism-based; set-up: time < 24 hrs, dose 1 mg/kg, route iv; conditions: in vivo
[16] = Cmax in CD1 mouse at 3 mg/kg, po measured upto 24 hrs by LC-MS/MS method; format: ADME, organism-based; set-up: time < 24 hrs, dose 3 mg/kg, route po; conditions: in vivo
[17] = Cmax in CD1 mouse at 10 mg/kg, po measured upto 24 hrs by LC-MS/MS method; format: ADME, organism-based; set-up: time < 24 hrs, dose 10 mg/kg, route po; conditions: in vivo
[18] = AUClast in CD1 mouse at 1 mg/kg, iv measured upto 24 hrs by LC-MS/MS method; format: ADME, organism-based; set-up: time < 24 hrs, dose 1 mg/kg, route iv; conditions: in vivo
[19] = AUClast in CD1 mouse at 3 mg/kg, po measured upto 24 hrs by LC-MS/MS method; format: ADME, organism-based; set-up: dose 3 mg/kg, time < 24 hrs, route po; conditions: in vivo
[20] = AUClast in CD1 mouse at 10 mg/kg, po measured upto 24 hrs by LC-MS/MS method; format: ADME, organism-based; set-up: dose 10 mg/kg, time < 24 hrs, route po; conditions: in vivo
[21] = Half life in CD1 mouse at 1 mg/kg, iv measured upto 24 hrs by LC-MS/MS method; format: ADME, organism-based; conditions: in vivo
[22] = Half life in CD1 mouse at 3 mg/kg, po measured upto 24 hrs by LC-MS/MS method; format: ADME, organism-based; conditions: in vivo
[23] = Half life in CD1 mouse at 10 mg/kg, po measured upto 24 hrs by LC-MS/MS method; format: ADME, organism-based; conditions: in vivo
[24] = Unbound clearance in CD1 mouse at 1 mg/kg, iv measured upto 24 hrs by LC-MS/MS method; format: ADME, organism-based; conditions: in vivo
[25] = Unbound clearance in CD1 mouse at 3 mg/kg, po measured upto 24 hrs by LC-MS/MS method; format: ADME, organism-based; conditions: in vivo
[26] = Unbound clearance in CD1 mouse at 10 mg/kg, po measured upto 24 hrs by LC-MS/MS method; format: ADME, organism-based; conditions: in vivo
[27] = Oral bioavailability in CD1 mouse at 3 mg/kg measured upto 24 hrs by LC-MS/MS method; format: ADME, organism-based; conditions: in vivo
[28] = Oral bioavailability in CD1 mouse at 10 mg/kg measured upto 24 hrs by LC-MS/MS method; format: ADME, organism-based; conditions: in vivo
[29] = molecular target: T2, Bromodomain-containing protein 4; remark: listed apart in the source
Description: Inhibition of BRD4 BD1 (unknown origin) by TR-FRET assay

[30] = human, microsomes
[31] = buffer, pH 7.4, 18 h
Description: Solubility of the compound in PBS buffer at pH 7.4 incubated for 18 hrs by UV spectrometry analysis

[32] = in vitro; conditions: human, Caco-2
[33] = in vitro; conditions: human, plasma; remark: listed apart in the source
Description: Plasma protein binding in human by RED analysis

T1 sequence (P25440 whole entry): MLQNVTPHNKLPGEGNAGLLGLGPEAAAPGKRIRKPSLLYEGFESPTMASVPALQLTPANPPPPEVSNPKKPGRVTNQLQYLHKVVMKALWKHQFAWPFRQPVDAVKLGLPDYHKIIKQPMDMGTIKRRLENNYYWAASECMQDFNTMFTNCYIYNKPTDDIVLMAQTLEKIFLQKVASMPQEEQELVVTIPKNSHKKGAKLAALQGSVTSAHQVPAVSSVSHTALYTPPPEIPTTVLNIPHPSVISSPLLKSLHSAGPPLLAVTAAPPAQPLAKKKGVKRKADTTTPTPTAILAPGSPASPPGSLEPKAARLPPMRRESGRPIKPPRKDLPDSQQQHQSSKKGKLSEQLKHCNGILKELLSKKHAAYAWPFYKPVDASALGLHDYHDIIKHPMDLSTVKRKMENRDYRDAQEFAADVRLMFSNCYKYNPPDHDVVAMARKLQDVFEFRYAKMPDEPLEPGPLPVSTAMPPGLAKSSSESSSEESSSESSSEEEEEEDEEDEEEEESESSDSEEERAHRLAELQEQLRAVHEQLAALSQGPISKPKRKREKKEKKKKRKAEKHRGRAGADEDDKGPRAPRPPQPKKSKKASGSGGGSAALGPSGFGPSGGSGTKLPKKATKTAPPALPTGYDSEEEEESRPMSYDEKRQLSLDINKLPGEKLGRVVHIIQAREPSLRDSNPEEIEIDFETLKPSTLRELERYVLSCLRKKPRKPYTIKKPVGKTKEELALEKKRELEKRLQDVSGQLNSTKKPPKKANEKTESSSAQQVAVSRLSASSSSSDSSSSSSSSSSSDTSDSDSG

SMILES: Cc1sc2c(c1C)C(c1ccc(Cl)cc1)=N[C@@H](CC(=O)NCC(=O)O)c1nnc(C)n1-2
- IC50 [1]: 146 nM
- IC50 [2]: 0.3 nM
- IC50 [3]: 0.4 nM
- IC50 [4]: 9340 nM
- IC50 [5]: > 8850 nM
- IC50 [6]: > 8850 nM
- IC50 [7]: 3060 nM
- half-life at 48 h [8]: > 100 h

SMILES: COC(=O)CNC(=O)C[C@@H]1N=C(c2ccc(Cl)cc2)c2c(sc(C)c2C)-n2c(C)nnc21
- IC50 [4]: 359 nM
- IC50 [5]: 337 nM
- IC50 [6]: 16 nM
- IC50 [9]: 9 nM

SMILES: Cc1sc2c(c1C)C(c1ccc(Cl)cc1)=N[C@@H](CC(=O)Nc1nncs1)c1nnc(C)n1-2
- IC50 [2]: 0.1 nM
- Activity [10]: 50%
- Activity [11]: 22%
- Vz/F [12]: 0.8 L/kg
- Tmax [13]: 1 h
- Tmax [14]: 0.5 h
- Cmax [15]: 1930 ng/mL
- Cmax [16]: 1555.3 ng/mL
- Cmax [17]: 3155.6 ng/mL
- AUClast [18]: 1567.1 ng·h/mL
- AUClast [19]: 3275.4 ng·h/mL
- AUClast [20]: 9473 ng·h/mL
- t1/2 [21]: 1.5 h
- t1/2 [22]: 3.9 h
- t1/2 [23]: 3.9 h
- CL free [24]: 10.6 mL/min/kg
- CL free [25]: 15.2 mL/min/kg
- CL free [26]: 17.5 mL/min/kg
- F [27]: 70%
- F [28]: 60%
- IC50 [29]: 6 nM
- IC50 [3]: 0.2 nM
- t1/2 [30]: 3.2 h
- solubility [31]: 12 µM (≈ 5.81 µg/mL)
- IC50 [4]: 6 nM
- IC50 [5]: 56 nM
- IC50 [6]: 3 nM
- IC50 [9]: 10 nM
- IC50 [7]: 20 nM
- half-life at 48 h [8]: > 100 h
- Papp A→B [32]: 6.65 ×10⁻⁶ cm/s

SMILES: Cc1sc2c(c1C)C(c1ccc(Cl)cc1)=N[C@@H](CC(=O)NCc1ccccn1)c1nnc(C)n1-2
- IC50 [1]: 16 nM
- IC50 [2]: 0.3 nM
- IC50 [4]: 263 nM
- IC50 [5]: 228 nM
- IC50 [6]: 14 nM
- IC50 [9]: 8 nM
- IC50 [7]: 444 nM

SMILES: Cc1sc2c(c1C)C(c1ccc(Cl)cc1)=N[C@@H](CC(=O)Nc1nccs1)c1nnc(C)n1-2
- IC50 [1]: 10 nM
- IC50 [4]: 4 nM
- IC50 [6]: 6 nM
- IC50 [9]: 22 nM
- IC50 [7]: 40 nM
- half-life at 48 h [8]: > 100 h

SMILES: Cc1sc2c(c1C)C(c1ccc(Cl)cc1)=N[C@@H](CC(=O)NCc1ccon1)c1nnc(C)n1-2
- IC50 [1]: 3 nM
- IC50 [2]: 0.1 nM
- t1/2 [30]: 0.4 h
- solubility [31]: 56.9 µM (≈ 27.4 µg/mL)
- IC50 [4]: 17 nM
- IC50 [5]: 25 nM
- IC50 [6]: 12 nM
- IC50 [9]: 14 nM
- IC50 [7]: 32 nM
- half-life at 48 h [8]: > 100 h
- Papp A→B [32]: 15 ×10⁻⁶ cm/s
- fraction unbound [33]: 0.065

SMILES: Cc1sc2c(c1C)C(c1ccc(Cl)cc1)=N[C@@H](CC(=O)NCc1ncco1)c1nnc(C)n1-2
- IC50 [1]: 9 nM
- IC50 [2]: 0.1 nM
- IC50 [4]: 1 nM
- IC50 [5]: 18 nM
- IC50 [9]: 2 nM

SMILES: Cc1sc2c(c1C)C(c1ccc(Cl)cc1)=N[C@@H](CC(=O)Nc1ccc(O)cc1)c1nnc(C)n1-2 [BIRABRESIB]
- t1/2 [30]: 1.7 h
- solubility [31]: 23.4 µM (≈ 11.5 µg/mL)
- IC50 [5]: 66 nM
- IC50 [6]: 14 nM
- IC50 [9]: 11 nM
- IC50 [7]: 22 nM
- half-life at 48 h [8]: > 100 h
- Papp A→B [32]: 22.2 ×10⁻⁶ cm/s
- fraction unbound [33]: 0.027
